row,melting point,SMILES
1,153 °C,"Cn1cnnc1C(c1ccc(Cl)cc1)c1ccc2c(c1)c(-c1cccc(Cl)c1)cc(=O)n2C (centres unmarked) [Example B7, 4-(3-chlorophenyl)-6-[(4-chlorophenyl)(4-methyl-4H-1,2,4-triazol-3-yl)methyl]-1-methyl-2(1H)-quinolinone]"
2,217 °C,"Cn1cnnc1C(c1ccc(Cl)cc1)c1ccc2c(c1)c(-c1cccc(Cl)c1)nc1nnnn12 (centres unmarked) [Example B20, 5-(3-chlorophenyl)-7-[(4-chlorophenyl)(4methyl-4H-1,2,4-triazol-3-yl)methyl]-tetrazolo[1,5-a]quinazoline]"
3,210 °C,"Cn1cnnc1C(N)(c1ccc(Cl)cc1)c1ccc2c(c1)c(-c1cccc(Cl)c1)cc(=O)n2C (centres unmarked) [Example B22b, 6-[amino(4-chlorophenyl)(4-methyl-4H-1,2,4-triazol-3-yl)methyl]-4-(3-chlorophenyl)-1-methyl-2(1H)-quinolinone]"
4,150 °C,"Cn1cnnc1C(c1ccc(I)cc1)c1ccc2c(c1)c(-c1cccc(Cl)c1)nc1nnnn12 (centres unmarked) [Example B26b, tetrazolo[1,5-a]quinazoline, 5-(3-chlorophenyl)-7-[(4-iodophenyl)(4methyl-4H-1,2,4-triazol-3-yl)methyl]-]"
5,65 °C,"CSc1nnc(C(O)(c2ccc(Cl)cc2)c2ccc3c(c2)c(-c2cccc(Cl)c2)nc2nnnn23)n1C (stereo not drawn) [Example B28b, 5-(3-chlorophenyl)-α-(4-chlorophenyl)-α-[4-methyl-5-(methylthio)-4H-1,2,4-triazol-3-yl]-tetrazolo[1,5-a]quinazoline-7-methanol]"
6,150 °C,"CSc1nnc(C(N)(c2ccc(Cl)cc2)c2ccc3c(c2)c(-c2cccc(Cl)c2)nc2nnnn23)n1C (stereo not drawn) [Example B28d, 5-(3-chlorophenyl)-α-(4-chlorophenyl)-α-[4-methyl-5-(methylthio)-4H-1,2,4-triazol-3-yl]-tetrazolo[1,5-a]quinazoline-7-methanamine]"
7,220 °C,"Cn1cnnc1C(N)(c1ccc(Cl)cc1)c1ccc2c(c1)c(-c1cccc(Cl)c1)nc1nnnn12 (stereo not drawn) [Example B28e, 5-(3-chlorophenyl)-α-(4-chlorophenyl)-α-(4-methyl-4H-1,2,4-triazol-3-yl)-tetrazolo[1,5-a]quinazoline-7-methanamine]"
8,238 °C,"Cn1cnnc1C(N)(c1ccc(I)cc1)c1ccc2c(c1)c(-c1cccc(Cl)c1)nc1nnnn12 (stereo not drawn) [Example B29c, 5-(3-chlorophenyl)-α-(4-iodophenyl)-α-(4-methyl-4H-1,2,4-triazol-3-yl)-tetrazolo[1,5-a]quinazoline-7-methanamine]"
9,194 °C,"Cn1cnnc1C(N)(c1ccc(C#N)cc1)c1ccc2c(c1)c(-c1cccc(Cl)c1)nc1nnnn12 (centres unmarked) [Example B29d, 4-[amino[5-(3-chlorophenyl)tetrazolo[1,5-a]quinazolin-7-yl](4-methyl-4H-1,2,4-triazol-3-yl)methyl]-benzonitrile]"
10,260 °C,"Cn1cnnc1C(CCl)(c1ccc(Cl)cc1)c1ccc2c(c1)c(-c1cccc(Cl)c1)cc(=O)n2C (centres unmarked) [Example B31, 6-[2-chloro-1-(4-chlorophenyl)-1-(4-methyl-4H-1,2,4-triazol-3-yl)ethyl]-4-(3-chlorophenyl)-1-methyl-2(1H)-quinolinone]"

# Continued, compound first:
row,SMILES,melting point
1,Cl.Cn1cncc1C(O)(c1ccc(C=O)cc1)c1ccc2[nH]c(=O)cc(-c3cccc(Cl)c3)c2c1 (racemic),> 260 °C
2,Cl.Cn1cncc1C(O)(c1ccc(C(=O)O)cc1)c1ccc2[nH]c(=O)cc(-c3cccc(Cl)c3)c2c1.O (racemic) (hydrate or solvate),> 300 °C
3,"Cn1cncc1C(O)(c1ccc([N+](=O)[O-])cc1)c1ccc2c(c1)c(-c1cccc(Cl)c1)cc(=O)n2C (racemic) [Example B4, (±)-4-(3-chlorophenyl)-6-[hydroxy(1-methyl-1H-imidazol-5-yl)(4-nitrophenyl)methyl]-1-methyl-2(1H)-quinolinone]",230 °C
4,"Cn1cncc1C(O)(c1ccc(C=O)cc1)c1ccc2c(c1)c(-c1cccc(Cl)c1)cc(=O)n2C (racemic) [Example B6, (±)-4-[[4-(3-chlorophenyl)-1,2-dihydro-1-methyl-2-oxo-6-quinolinyl]hydroxy(1-methyl-1H-imidazol-5-yl)methyl]benzaldehyde]",208 °C
5,"Cn1cncc1C(N)(c1ccc([N+](=O)[O-])cc1)c1ccc2c(c1)c(-c1cccc(Cl)c1)cc(=O)n2C (racemic) [Example B8b, (±)-6-[amino(1-methyl-1H-imidazol-5-yl)(4-nitrophenyl)methyl]-4-(3-chlorophenyl)-1-methyl-2(1H)-quinolinone]",258 °C
6,"Cn1cncc1C(O)(c1ccc(CO)cc1)c1ccc2c(c1)c(-c1cccc(Cl)c1)cc(=O)n2C (racemic) [Example B9, (±)-4-(3-chlorophenyl)-6-[hydroxy[4-(hydroxymethyl)phenyl](1-methyl-1H-imidazol-5-yl)methyl]-1-methyl-2(1H)-quinolinone]",273 °C
7,"Cn1cncc1C(O)(c1ccc(-c2ccc(Cl)cc2)cc1)c1ccc2c(c1)c(-c1cccc(Cl)c1)cc(=O)n2C (racemic) [Example B10, (±)-6-[(4′-chloro[1,1′-biphenyl]-4-yl)hydroxy(1-methyl-1H-imidazol-5-yl)methyl]-4-(3-chlorophenyl)-1-methyl-2(1H)-quinolinone]",236 °C
8,"CC(O)c1ccc(C(O)(c2ccc3c(c2)c(-c2cccc(Cl)c2)cc(=O)n3C)c2cncn2C)cc1 (racemic) [Example B17, (±)-4-(3-chlorophenyl)-6-[hydroxy[4-(1-hydroxyethyl)phenyl](1-methyl-1H-imidazol-5-yl)methyl]-1-methyl-2(1H)-quinolinone]",181 °C
9,"Cn1cncc1C(O)(c1ccc(C(=O)O)cc1)c1ccc2c(c1)c(-c1cccc(Cl)c1)cc(=O)n2C (racemic) [Example B19, (±)-4-[[4-(3-chlorophenyl)-1,2-dihydro-1-methyl-2-oxo-6-quinolinyl]hydroxy(1-methyl-1H-imidazol-5-yl)methyl]benzoic acid]",> 260 °C
10,"Cn1cncc1C(O)(c1ccc(C#N)cc1)c1ccc2c(c1)c(-c1cccc(Cl)c1)cc(=O)n2C (racemic) [Example B41b, (±)-4-[[4-(3-chlorophenyl)-1,2-dihydro-1-methyl-2-oxo-6-quinolinyl]hydroxy(1-methyl-1H-imidazol-5yl)methyl]benzonitrile]",210 °C
11,"Cn1cnnc1C(O)(c1ccc(Cl)cc1)c1ccc2c(c1)c(-c1cccc(Cl)c1)cc(=O)n2C (centres unmarked) [Example B13, 4-(3-chlorophenyl)-6-[(4-chlorophenyl)hydroxy(4-methyl-4H-1,2,4-triazol-3-yl)methyl]-1-methyl-2(1H)-quinolinone]",182 °C
12,"Cn1cncc1C(O)(c1ccc2c(c1)OCCO2)c1ccc2[nH]c(=O)nc(-c3cccc(Cl)c3)c2c1 (centres unmarked) [Example B30, 4-(3-chlorophenyl)-6-[(2,3-dihydro-1,4-benzodioxin-6-yl)hydroxy(1-methyl-1H-imidazol-5-yl)methyl]-2(1H)-quinazolinone]",> 260 °C
13,"Cn1cnnc1C(O)(c1ccc(Cl)cc1)c1ccc2[nH]c(=O)cc(-c3cccc(Cl)c3)c2c1 (centres unmarked) [Example B32, 4-(3-chlorophenyl)-6-[(4-chlorophenyl)hydroxy(4-methyl-4H-1,2,4-triazol-3-yl)methyl]-2(1H)-quinolinone]",> 260 °C

# Reference: US7173040B2, “Farnesyl transferase inhibiting 6-[(substituted phenyl)methyl]-quinoline and quinazoline derinazoline derivatives” (Janssen Pharmaceutica N.V., priority 2000, dated 2007)
